Assay results published in ChEMBL document CHEMBL5724914, “Linking interpersonal differences in gut microbiota composition and drug biotransformation activity” (2024).

How the values were obtained:
[1] = The drug is tested on Z-026 corresponding to metagenome with ENA study accession number: PRJEB37062 and ENA sample accession number: ERS12561825 for biotransformation under anaerobic condition. The drug concentrations were measured over 9 timepoints collected between 0 and 24 hours of incubation by liquid-chromatography-coupled mass spectrometry (LC–MS); conditions: 2 µM
[2] = The drug is tested on Z-019 corresponding to rat gut metagenome with ENA study accession number: PRJEB37062 and ENA sample accession number: ERS12561818 for biotransformation under anaerobic condition. The drug concentrations were measured over 9 timepoints collected between 0 and 24 hours of incubation by liquid-chromatography-coupled mass spectrometry (LC–MS); conditions: 2 µM
[3] = The drug is tested on Z-014 corresponding to rat gut metagenome with ENA study accession number: PRJEB37062 and ENA sample accession number: ERS12561814 for biotransformation under anaerobic condition. The drug concentrations were measured over 9 timepoints collected between 0 and 24 hours of incubation by liquid-chromatography-coupled mass spectrometry (LC–MS); conditions: 2 µM
[4] = The drug is tested on Z-013 corresponding to rabbit gut metagenome with ENA study accession number: PRJEB37062 and ENA sample accession number: ERS12561813 for biotransformation under anaerobic condition. The drug concentrations were measured over 9 timepoints collected between 0 and 24 hours of incubation by liquid-chromatography-coupled mass spectrometry (LC–MS); conditions: 2 µM
[5] = The drug is tested on Z-006 corresponding to mouse gut metagenome with ENA study accession number: PRJEB37062 and ENA sample accession number: ERS12561806 for biotransformation under anaerobic condition. The drug concentrations were measured over 9 timepoints collected between 0 and 24 hours of incubation by liquid-chromatography-coupled mass spectrometry (LC–MS); conditions: 2 µM
[6] = The drug is tested on WLS-240 corresponding to human gut metagenome with ENA study accession number: PRJEB37062 and ENA sample accession number: ERS12561773 for biotransformation under anaerobic condition. The drug concentrations were measured over 9 timepoints collected between 0 and 24 hours of incubation by liquid-chromatography-coupled mass spectrometry (LC–MS); conditions: 2 µM
[7] = The drug is tested on WLS-170 corresponding to human gut metagenome with ENA study accession number: PRJEB37062 and ENA sample accession number: ERS12561762 for biotransformation under anaerobic condition. The drug concentrations were measured over 9 timepoints collected between 0 and 24 hours of incubation by liquid-chromatography-coupled mass spectrometry (LC–MS); conditions: 2 µM
[8] = The drug is tested on WLS-077 corresponding to human gut metagenome with ENA study accession number: PRJEB37062 and ENA sample accession number: ERS12561750 for biotransformation under anaerobic condition. The drug concentrations were measured over 9 timepoints collected between 0 and 24 hours of incubation by liquid-chromatography-coupled mass spectrometry (LC–MS); conditions: 2 µM
[9] = The drug is tested on WLS-027 corresponding to human gut metagenome with ENA study accession number: PRJEB37062 and ENA sample accession number: ERS12561744 for biotransformation under anaerobic condition. The drug concentrations were measured over 9 timepoints collected between 0 and 24 hours of incubation by liquid-chromatography-coupled mass spectrometry (LC–MS); conditions: 2 µM
[10] = human gut metagenome, 24 h, 2 µM
[11] = human gut metagenome, 24 h, 2 µM; remark: listed apart in the source
[12] = human gut metagenome, 24 h, 2 µM; remark: listed apart in the source
[13] = human gut metagenome, 24 h, 2 µM; remark: listed apart in the source
[14] = human gut metagenome, 24 h, 2 µM; remark: listed apart in the source
[15] = human gut metagenome, 24 h, 2 µM; remark: listed apart in the source
[16] = human gut metagenome, 24 h, 2 µM; remark: listed apart in the source
[17] = human gut metagenome, 24 h, 2 µM; remark: listed apart in the source
[18] = human gut metagenome, 24 h, 2 µM; remark: listed apart in the source
[19] = human gut metagenome, 24 h, 2 µM; remark: listed apart in the source
[20] = The drug is tested on Z-017 corresponding to mouse gut metagenome with ENA study accession number: PRJEB37062 and ENA sample accession number: ERS12561816 for biotransformation under anaerobic condition. The drug concentrations were measured over 9 timepoints collected between 0 and 24 hours of incubation by liquid-chromatography-coupled mass spectrometry (LC–MS); conditions: 2 µM
Also: call rule not given here.

| SMILES | Bacterial Biotransformation [1] | Bacterial Biotransformation [2] | Bacterial Biotransformation [3] | Bacterial Biotransformation [4] | Bacterial Biotransformation [5] | Bacterial Biotransformation [6] | Bacterial Biotransformation [7] | Bacterial Biotransformation [8] | Bacterial Biotransformation [9] | Bacterial Biotransformation [10] | Bacterial Biotransformation [11] | Bacterial Biotransformation [12] | Bacterial Biotransformation [13] | Bacterial Biotransformation [14] | Bacterial Biotransformation [15] | Bacterial Biotransformation [16] | Bacterial Biotransformation [17] | Bacterial Biotransformation [18] | Bacterial Biotransformation [19] | Bacterial Biotransformation [20] |
| --- | --- | --- | --- | --- | --- | --- | --- | --- | --- | --- | --- | --- | --- | --- | --- | --- | --- | --- | --- | --- |
| O=C(NCc1ccccc1)OCCO [BURAMATE] | Compound NOT metabolized | Compound NOT metabolized | Compound NOT metabolized | Compound NOT metabolized | Compound NOT metabolized | Compound NOT metabolized | Compound NOT metabolized | Compound NOT metabolized | Compound NOT metabolized | Compound NOT metabolized | Compound NOT metabolized | Compound NOT metabolized | Compound NOT metabolized | Compound NOT metabolized | Compound NOT metabolized | Compound NOT metabolized | Compound NOT metabolized | Compound NOT metabolized | Compound NOT metabolized |  |
| OCCN1CCN(CCCN2c3ccccc3Sc3ccc(C(F)(F)F)cc32)CC1 [FLUPHENAZINE] | Compound NOT metabolized |  | Compound NOT metabolized | Compound NOT metabolized | Compound metabolized | Compound metabolized | Compound metabolized |  | Compound metabolized | Compound NOT metabolized | Compound metabolized | Compound NOT metabolized | Compound metabolized | Compound metabolized | Compound metabolized | Compound metabolized | Compound NOT metabolized |  | Compound metabolized | Compound NOT metabolized |
| c1ccc([C@H]2CN3CCSC3=N2)cc1 [LEVAMISOLE] |  | Compound NOT metabolized | Compound NOT metabolized | Compound NOT metabolized | Compound metabolized | Compound metabolized | Compound metabolized |  | Compound metabolized | Compound metabolized | Compound metabolized | Compound metabolized | Compound NOT metabolized | Compound metabolized | Compound metabolized |  | Compound NOT metabolized | Compound metabolized | Compound metabolized | Compound NOT metabolized |
